US20250263408A1 (Uniquest Pty Ltd, priority 2022, published 2025)

Assays:
Syk = molecular target: T1, Syk (Homo sapiens, UniProt P43405); test: Syk Biochemical Assay (ADP-Glo luminescence); conditions: ATP 40 μM final, 60 minutes, read-out: SYK Biochem IC50
T1 construct: purchased Promega
Procedure: Compounds were serially diluted in 100% DMSO, prior to an intermediate dilution in water. In a low volume white 384-well Proxiplate (Perkin Elmer), 1 μL of compound (0.4% final DMSO) was added to 3 μL of 10 ng/well Syk (Promega) and 0.2 mg/mL Poly-E4Y1 substrate (Promega) in assay buffer (final 40 mM Tris-HCl pH 7.4, 20 mM MgCl2, 0.1 mg/mL BSA) for 5 minutes. The reaction was initiated by addition of 1 μL of ATP (40 μM final) and allowed to proceed for 60 minutes at room temperature. The reaction was terminated by addition of 5 μL of ADP-Glo Reagent Mix (Promega) containing 1 mM MgCl2 for 45 minutes at room temperature. 10 μL of Kinase Detection Reagent (Promega) was added and incubated for 10 minutes at room temperature, before luminescence was measured using an Ensight Multimode Plate Reader (Perkin Elmer).

Ba/F3-Syk cells = molecular target: T2, Ba/F3-Syk cells (Homo sapiens, UniProt P43405); test: Ba/F3 Proliferation Assay, Ba/F3-Syk cells (Resazurin); type: cell-based; conditions: 48-hour incubation
T2 construct: fused on or other part: Possible but unprinted fusion partner: TEL (ETV6), the usual partner for Ba/F3 lines transformed by Syk; Nothing on a partner is printed

[1] = tested on: Ba/F3-WT (wild type) cells; test: Ba/F3 Proliferation Assay, Ba/F3-WT (wild type) cells with mIL-3 (Resazurin); type: cell-based; conditions: Mus musculus, BaF3, 48 h, Ba/F3-WT cells +mIL-3, 48-hour incubation

SMILES	IC50 (Syk)	EC50 (Ba/F3-Syk cells)	EC50 [1]
CC(C)(C)n1ccc(-c2cc3ncccc3c(OC[C@@H]3CNCCCO3)n2)c1 [Compound 2.69, 7-(1-tert-butyl-1H-pyrrol-3-yl)-5-{[(2S)-1,4-oxazepan-2-yl]methoxy}-1,6-naphthyridine]	30.1 nM	13.5 nM	> 10000 nM
C[C@@H]1CNC[C@@H](COc2nc(-c3cnn(C)c3)cc3ncccc23)O1 [Compound 2.76, 7-(1-methyl-1H-pyrazol-4-yl)-5-{[(2S,6R)-6-methylmorpholin-2-yl]methoxy}-1,6-naphthyridine]	17.6 nM	44.8 nM	2760 nM
CC(C)[C@@H]1CNC[C@@H](COc2nc(-c3cnn(C(C)(C)C)c3)cc3ncccc23)O1 [Compound 2.98, 7-(1-tert-butyl-1H-pyrazol-4-yl)-5-{[(2S,6R)-6-(propan-2-yl)morpholin-2-yl]methoxy}-1,6-naphthyridine]	28.3 nM	18.6 nM	846 nM
CC(C)(C)n1cc(-c2cc3ncccc3c(OC[C@@H]3CNC[C@@H](C(F)F)O3)n2)cn1 [Compound 2.99, 7-(1-tert-butyl-1-pyrazol-4-yl)-5-{[(2S,6S)-6-(difluoromethyl)morpholin-2-yl]methoxy}-1,6-naphthyridine]	21.4 nM	17.8 nM	1010 nM
CC(C)(C)[C@H]1CNC[C@@H](COc2nc(-c3cnn(C(C)(C)C)c3)cc3ncccc23)O1 [Compound 2.100, 7-(1-tert-butyl-1H-pyrazol-4-yl)-5-{[(2S,6S)-6-tert-butylmorpholin-2-yl]methoxy}-1,6-naphthyridine]	278 nM	362 nM	3010 nM
CC(C)(C)[C@@H]1CNC[C@@H](COc2nc(-c3cnn(C(C)(C)C)c3)cc3ncccc23)O1 [Compound 2.101, 7-(1-tert-butyl-1H-pyrazol-4-yl)-5-{[(2S,6R)-6-tert-butylmorpholin-2-yl]methoxy}-1,6-naphthyridine]	40 nM	25.4 nM	628 nM
CC(C)(C)n1cc(-c2cc3ncccc3c(OC[C@@H]3CNC[C@H](C4CC4)O3)n2)cn1 [Compound 2.102, 7-(1-tert-butyl-1H-pyrazol-4-yl)-5-{[(2S,6S)-6-cyclopropylmorpholin-2-yl]methoxy}-1,6-naphthyridine]	12.9 nM	11.7 nM	1070 nM
CC(C)(C)n1cc(-c2cc3ncccc3c(OC[C@@H]3CNC[C@@H](C4CC4)O3)n2)cn1 [Compound 2.103, 7-(1-tert-butyl-1H-pyrazol-4-yl)-5-{[(2S,6R)-6-cyclopropylmorpholin-2-yl]methoxy}-1,6-naphthyridine]	30.5 nM	32.7 nM	985 nM
CC(C)[C@H]1CNC[C@@H](COc2nc(-c3cnn(C(C)(C)C)c3)cc3ncccc23)O1 [Compound 2.104, 7-(1-tert-butyl-1H-pyrazol-4-yl)-5-{[(2S,6S)-6-(propan-2-yl)morpholin-2-yl]methoxy}-1,6-naphthyridine]	16.6 nM	33.1 nM	1570 nM
CC(C)(C)n1cc(-c2cc3ncccc3c(OC[C@@H]3CNC[C@H](C(F)F)O3)n2)cn1 [Compound 2.105, 7-(1-tert-butyl-1H-pyrazol-4-yl)-5-{[(2S,6R)-6-(difluoromethyl)morpholin-2-yl]methoxy}-1,6-naphthyridine]	6.21 nM	31.1 nM	1550 nM
CC1(C)CNC[C@@H](COc2cc(-c3cnn(C(C)(C)C)c3)cc3ncccc23)O1 [Compound 3.2, 7-(1-tert-butyl-1H-pyrazol-4-yl)-5-{[(2S)-6,6-dimethylmorpholin-2-yl]methoxy} quinoline]	11.8 nM	23.5 nM	2370 nM
CC(C)n1cc(-c2cc(OC[C@@H]3CNCCO3)c3cccnc3c2)cn1 [Compound 3.4, 5-{[(2S)-morpholin-2-yl]methoxy}-7-[1-(propan-2-yl)-1H-pyrazol-4-yl]quinoline]	29.3 nM	47.4 nM	926 nM
CC1(C)CNC[C@@H](COc2cc(-c3cnn(C4CC4)c3)cc3ncccc23)O1 [Compound 3.8, 7-(1-cyclopropyl-1H-pyrazol-4-yl)-5-{[(2S)-6,6-dimethylmorpholin-2-yl]methoxy}quinoline]	23.7 nM	50.9 nM	1970 nM
CC(C)(C)n1cc(-c2cc(OC[C@@H]3CNCCCO3)c3cccnc3c2)cn1 [Compound 3.14, 7-(1-tert-butyl-1H-pyrazol-4-yl)-5-{[(2S)-1,4-oxazepan-2-yl]methoxy}quinoline]	57.1 nM	54.5 nM	6490 nM
CC(C)(C)n1ccc(-c2cc(OC[C@@H]3CNCCO3)c3cccnc3c2)c1 [Compound 3.15, 7-(1-tert-butyl-1H-pyrrol-3-yl)-5-{[(2S)-morpholin-2-yl]methoxy}quinoline]	39.6 nM	30.4 nM	5840 nM
Cn1ccc(-c2cc(OC[C@@H]3CNCC4(CC4)O3)c3cccnc3c2)c1 [Compound 3.17, 7-(1-methyl-1H-pyrrol-3-yl)-5-{[(5S)-4-oxa-7-azaspiro[2.5]octan-5-yl]methoxy}quinoline]	43.7 nM	51.8 nM	2220 nM
Cn1cc(-c2cc(OC[C@@H]3CNCC4(CC4)O3)c3cccnc3c2)cn1 [Compound 3.19, 7-(1-methyl-1H-pyrazol-4-yl)-5-{[(5S)-4-oxa-7-azaspiro[2.5]octan-5-yl]methoxy}quinoline]	51.1 nM	99.1 nM	6800 nM
CC(C)n1cc(-c2cc(OC[C@@H]3CNC[C@@H](C)O3)c3cccnc3c2)cn1 [Compound 3.23, 5-{[(2S,6R)-6-methylmorpholin-2-yl]methoxy}-7-[1-(propan-2-yl)-1H-pyrazol-4-yl]quinoline]	12.6 nM	12.1 nM	941 nM
C[C@@H]1CNC[C@@H](COc2cc(-c3ccn(C)c3)cc3ncccc23)O1 [Compound 3.24, 7-(1-methyl-1H-pyrrol-3-yl)-5-{[(2S,6R)-6-methylmorpholin-2-yl]methoxy}quinoline]	16.4 nM	28.2 nM	2260 nM
FC(F)Cn1ccc(-c2cc3ncccc3c(OC[C@@H]3CNCCO3)n2)c1 [Compound 6.5, 7-[1-(2,2-difluoroethyl)-1H-pyrrol-3-yl]-5-{[(2S)-morpholin-2-yl]methoxy}-1,6-naphthyridine]	14.2 nM	63 nM	2140 nM
COCCn1ccc(-c2cc3ncccc3c(OC[C@@H]3CNCCO3)n2)c1 [Compound 6.10, 7-[1-(2-methoxyethyl)-1H-pyrrol-3-yl]-5-{[(2S)-morpholin-2-yl]methoxy}-1,6-naphthyridine]	21.3 nM	106 nM	1980 nM
c1cnc2cc(-c3ccn(C4COC4)c3)nc(OC[C@@H]3CNCCO3)c2c1 [Compound 6.11, 5-{[(2S)-morpholin-2-yl]methoxy}-7-[1-(oxetan-3-yl)-1H-pyrrol-3-yl]-1,6-naphthyridine]	24.6 nM	30.7 nM	1680 nM
CC1(C)CNC[C@@H](COc2nc(-c3ccn(CC(F)F)c3)cc3ncccc23)O1 [Compound 6.13, 7-[1-(2,2-difluoroethyl)-1H-pyrrol-3-yl]-5-{[(2S)-6,6-dimethylmorpholin-2-yl]methoxy}-1,6-naphthyridine]	14.6 nM	21.8 nM	2050 nM
COCCn1ccc(-c2cc3ncccc3c(OC[C@@H]3CNCC(C)(C)O3)n2)c1 [Compound 6.16, 5-{[(2S)-6,6-dimethylmorpholin-2-yl]methoxy}-7-[1-(2-methoxyethyl)-1H-pyrrol-3-yl]-1,6-naphthyridine]	28.4 nM	41.9 nM	3120 nM
CC1(C)CNC[C@@H](COc2nc(-c3cnn(CC(F)F)c3)cc3ncccc23)O1 [Compound 6.20, 7-[1-(2,2-difluoroethyl)-1H-pyrazol-4-yl]-5-{[(2S)-6,6-dimethylmorpholin-2-yl]methoxy}-1,6-naphthyridine]	9.1 nM	32.1 nM	2180 nM
CC(C)n1ccc(-c2cc3ncccc3c(OC[C@@H]3CNCC4(CC4)O3)n2)c1 [Compound 6.22, 5-{[(5S)-4-oxa-7-azaspiro[2.5]octan-5-yl]methoxy}-7-[1-(propan-2-yl)-1-H-pyrrol-3-yl]-1,6-naphthyridine]	14.3 nM	11.2 nM	2090 nM
COCCn1ccc(-c2cc3ncccc3c(OC[C@@H]3CNCC4(CC4)O3)n2)c1 [Compound 6.23, 7-[1-(2-methoxyethyl)-1H-pyrrol-3-yl]-5-{[(5S)-4-oxa-7-azaspiro[2.5]octan-5-yl]methoxy}-1,6-naphthyridine]	55.9 nM	28.4 nM	2100 nM
CC1(C)CNC[C@@H](COc2nc(-c3ccn(C4COC4)c3)cc3ncccc23)O1 [Compound 6.25, 5-{[(2S)-6,6-dimethylmorpholin-2-yl]methoxy}-7-[1-(oxetan-3-yl)-1H-pyrrol-3-yl]-1,6-naphthyridine]	20.5 nM	8.6 nM	1760 nM
